Results on 14 compounds are retold here after ChEMBL document CHEMBL1909046, “DrugMatrix in vitro pharmacology data”.

The term IC50 denotes the concentration needed to halve the response being measured. The Ki is a measure of affinity in units of concentration, obtained from inhibition or displacement.

For experiment [1], the target named is C-C chemokine receptor type 5 (Homo sapiens, UniProt P51681). Format: cell membranes, Membrane. Particulars: hek293.
For experiment [2], the target named is T1, 3-hydroxy-3-methylglutaryl-coenzyme A reductase (Homo sapiens, UniProt P04035).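 Also: enzyme inhibition assay of HMG-CoA reductase using radiolabeled [14C]HMG-CoA as substrate.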
T1 sequence (P04035 whole entry): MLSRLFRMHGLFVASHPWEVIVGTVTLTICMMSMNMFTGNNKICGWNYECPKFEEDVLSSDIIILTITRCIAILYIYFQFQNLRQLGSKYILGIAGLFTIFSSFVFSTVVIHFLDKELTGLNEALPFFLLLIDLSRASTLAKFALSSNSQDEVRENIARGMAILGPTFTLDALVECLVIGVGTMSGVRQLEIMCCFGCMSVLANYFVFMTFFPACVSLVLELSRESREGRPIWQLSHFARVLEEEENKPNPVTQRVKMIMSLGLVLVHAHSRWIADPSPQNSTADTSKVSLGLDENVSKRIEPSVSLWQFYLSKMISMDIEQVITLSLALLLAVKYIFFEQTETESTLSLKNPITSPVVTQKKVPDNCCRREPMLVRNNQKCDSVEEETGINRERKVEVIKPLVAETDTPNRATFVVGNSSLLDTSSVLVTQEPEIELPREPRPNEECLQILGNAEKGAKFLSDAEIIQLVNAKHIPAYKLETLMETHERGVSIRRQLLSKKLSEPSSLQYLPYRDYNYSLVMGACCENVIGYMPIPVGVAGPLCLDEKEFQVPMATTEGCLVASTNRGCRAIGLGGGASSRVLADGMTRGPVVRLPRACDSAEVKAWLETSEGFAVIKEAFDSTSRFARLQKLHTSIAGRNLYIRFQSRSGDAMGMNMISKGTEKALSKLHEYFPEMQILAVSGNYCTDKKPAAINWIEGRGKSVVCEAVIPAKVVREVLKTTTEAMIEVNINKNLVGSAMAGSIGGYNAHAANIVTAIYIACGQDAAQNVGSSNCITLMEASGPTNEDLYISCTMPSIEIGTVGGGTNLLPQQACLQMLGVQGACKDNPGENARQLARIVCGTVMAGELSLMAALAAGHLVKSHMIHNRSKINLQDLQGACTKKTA
Details: species or system Escherichia coli.

A further experiment has as its target T2, Neutrophil elastase (Homo sapiens, UniProt P08246).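 Also: inhibition of neutrophil elastase enzyme activity, measured with a p-nitroanilide-linked peptide substrate.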
T2 sequence (P08246 whole entry): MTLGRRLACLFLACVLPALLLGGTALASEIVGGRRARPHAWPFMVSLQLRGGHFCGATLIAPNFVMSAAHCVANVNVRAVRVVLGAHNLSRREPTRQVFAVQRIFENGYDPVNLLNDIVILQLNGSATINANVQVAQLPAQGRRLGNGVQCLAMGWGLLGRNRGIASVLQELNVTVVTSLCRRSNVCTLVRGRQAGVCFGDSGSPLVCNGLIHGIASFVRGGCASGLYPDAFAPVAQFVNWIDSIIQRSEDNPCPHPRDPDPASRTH
Format: tissue-based.

The target in experiment [3] is T3, C-C chemokine receptor type 4 (Homo sapiens, UniProt P51679).
T3 sequence (P51679 whole entry): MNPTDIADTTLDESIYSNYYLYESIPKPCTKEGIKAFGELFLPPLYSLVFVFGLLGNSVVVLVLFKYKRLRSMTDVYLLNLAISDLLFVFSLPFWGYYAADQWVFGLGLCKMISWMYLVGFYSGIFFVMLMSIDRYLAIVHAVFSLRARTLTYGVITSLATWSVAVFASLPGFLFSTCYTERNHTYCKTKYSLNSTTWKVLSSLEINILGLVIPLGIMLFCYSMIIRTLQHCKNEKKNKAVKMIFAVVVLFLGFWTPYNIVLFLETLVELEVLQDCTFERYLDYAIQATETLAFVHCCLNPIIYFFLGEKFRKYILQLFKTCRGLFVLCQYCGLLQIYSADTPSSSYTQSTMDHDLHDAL
Format: cell membranes, Membrane. The following applies: chem-1.

Experiment [4] concerns the target T4, C-X-C chemokine receptor type 2 (Homo sapiens, UniProt P25025).
T4 sequence (P25025 whole entry): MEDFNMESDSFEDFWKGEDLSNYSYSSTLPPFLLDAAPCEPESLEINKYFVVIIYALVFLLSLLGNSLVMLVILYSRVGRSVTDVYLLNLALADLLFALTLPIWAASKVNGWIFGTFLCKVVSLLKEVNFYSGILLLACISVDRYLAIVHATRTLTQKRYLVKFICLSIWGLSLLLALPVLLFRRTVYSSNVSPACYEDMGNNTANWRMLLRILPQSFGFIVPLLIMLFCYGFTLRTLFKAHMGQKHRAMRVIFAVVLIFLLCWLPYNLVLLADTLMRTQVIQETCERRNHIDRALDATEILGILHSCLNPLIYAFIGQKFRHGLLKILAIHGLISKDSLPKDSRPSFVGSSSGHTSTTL
Format: cell membranes, Membrane. Particulars: cho-k1.

For experiment [5], the target named is 5-hydroxytryptamine receptor 6 (Homo sapiens, UniProt P50406). Format: cell membranes, HeLa, Membrane.
In the next experiment the target is T5, Androgen receptor (Rattus norvegicus, UniProt P15207).
T5 sequence (P15207 whole entry): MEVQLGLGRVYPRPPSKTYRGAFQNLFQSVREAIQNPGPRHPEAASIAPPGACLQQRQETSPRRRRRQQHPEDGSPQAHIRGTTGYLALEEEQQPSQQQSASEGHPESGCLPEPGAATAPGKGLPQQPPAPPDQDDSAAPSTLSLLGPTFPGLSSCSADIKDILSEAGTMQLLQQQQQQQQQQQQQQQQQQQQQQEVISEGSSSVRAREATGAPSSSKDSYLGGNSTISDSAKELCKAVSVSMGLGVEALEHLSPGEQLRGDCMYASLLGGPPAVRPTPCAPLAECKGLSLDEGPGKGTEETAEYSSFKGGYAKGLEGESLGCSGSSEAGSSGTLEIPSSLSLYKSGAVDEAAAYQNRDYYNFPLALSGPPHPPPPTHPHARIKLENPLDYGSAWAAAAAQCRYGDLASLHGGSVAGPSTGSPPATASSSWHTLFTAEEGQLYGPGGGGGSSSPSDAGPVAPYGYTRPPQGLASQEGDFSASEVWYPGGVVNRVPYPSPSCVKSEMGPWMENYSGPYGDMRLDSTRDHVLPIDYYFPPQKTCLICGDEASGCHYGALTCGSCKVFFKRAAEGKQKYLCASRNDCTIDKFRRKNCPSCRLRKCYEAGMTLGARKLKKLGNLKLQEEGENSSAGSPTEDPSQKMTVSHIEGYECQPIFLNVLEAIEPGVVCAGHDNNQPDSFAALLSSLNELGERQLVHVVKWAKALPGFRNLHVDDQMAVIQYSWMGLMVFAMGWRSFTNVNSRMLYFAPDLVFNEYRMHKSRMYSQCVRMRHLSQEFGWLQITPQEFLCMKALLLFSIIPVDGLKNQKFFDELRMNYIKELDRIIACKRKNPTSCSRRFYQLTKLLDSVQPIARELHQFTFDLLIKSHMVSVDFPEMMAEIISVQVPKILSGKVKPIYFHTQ

The structures appear in SMILES notation.
Also: in other assays of this panel Not Active means under 50% inhibition at 10 µM.

5-hydroxytryptamine receptor 6, sequence (P50406 whole entry): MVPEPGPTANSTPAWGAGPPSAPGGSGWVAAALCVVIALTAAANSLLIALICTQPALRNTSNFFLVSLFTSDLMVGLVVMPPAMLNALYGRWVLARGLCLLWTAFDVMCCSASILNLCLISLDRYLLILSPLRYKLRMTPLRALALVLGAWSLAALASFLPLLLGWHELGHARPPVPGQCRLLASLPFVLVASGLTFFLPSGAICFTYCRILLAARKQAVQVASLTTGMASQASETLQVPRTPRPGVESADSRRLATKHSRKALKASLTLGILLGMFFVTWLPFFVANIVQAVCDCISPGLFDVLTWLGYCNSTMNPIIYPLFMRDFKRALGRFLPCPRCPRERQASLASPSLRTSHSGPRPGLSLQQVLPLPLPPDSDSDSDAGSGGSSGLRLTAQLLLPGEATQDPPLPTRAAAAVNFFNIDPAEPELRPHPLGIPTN
C-C chemokine receptor type 5, sequence (P51681 whole entry): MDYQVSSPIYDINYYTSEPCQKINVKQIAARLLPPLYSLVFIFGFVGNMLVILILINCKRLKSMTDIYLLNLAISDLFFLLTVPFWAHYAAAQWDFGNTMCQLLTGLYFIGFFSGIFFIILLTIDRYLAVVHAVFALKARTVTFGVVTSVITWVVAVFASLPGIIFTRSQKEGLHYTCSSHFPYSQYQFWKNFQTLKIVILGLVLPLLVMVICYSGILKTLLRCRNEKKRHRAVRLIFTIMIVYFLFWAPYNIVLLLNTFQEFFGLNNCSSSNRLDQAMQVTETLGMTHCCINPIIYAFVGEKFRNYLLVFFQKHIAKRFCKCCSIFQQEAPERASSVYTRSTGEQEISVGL

For `CC(=O)Oc1ccc(C(c2ccc(OC(C)=O)cc2)c2ccccn2)cc1` [BISACODYL], the IC50 result (in experiment [1]; in experiment [2]; on Neutrophil elastase; in experiment [3]; in experiment [4]; in experiment [5] (hela)) was “Not Active” each time. Further, the IC50 result at Androgen receptor is “Not Active”.

As to `CN(C)[C@@H]1C(O)=C(C(N)=O)C(=O)[C@@]2(O)C(O)=C3C(=O)c4c(O)ccc(Cl)c4[C@@](C)(O)[C@H]3C[C@@H]12` [CHLORTETRACYCLINE], the concentration for half-maximal inhibition (IC50) entry (in experiment [1]; in experiment [2]; against Neutrophil elastase; in experiment [3]; in experiment [4]; in experiment [5] (hela)) was “Not Active” in each case. The IC50 entry against Androgen receptor is reported as “Not Active”.

As to `O=C1CN=C(c2ccccc2Cl)c2cc([N+](=O)[O-])ccc2N1` [CLONAZEPAM], the half-inhibitory concentration (IC50) entry (in experiment [1]; in experiment [2]; at Neutrophil elastase; in experiment [3]; in experiment [4]; in experiment [5] (hela)) was “Not Active” in each case. Also, the 50% inhibitory concentration (IC50) result against Androgen receptor was “Not Active”.

`C[C@@H]1CC[C@@]2(OC1)O[C@H]1[C@@H](O)[C@H]3[C@@H]4CC[C@H]5C[C@@H](O[C@@H]6O[C@H](CO)[C@H](O[C@@H]7O[C@H](CO)C(O)[C@H](O[C@@H]8OC[C@@H](O)[C@H](O)[C@H]8O)[C@H]7O[C@@H]7O[C@H](CO)[C@H](O)[C@H](O[C@@H]8O[C@H](CO)[C@@H](O)[C@H](O)[C@H]8O)[C@H]7O)[C@H](O)[C@H]6O)[C@H](O)C[C@]5(C)[C@H]4CC[C@]3(C)[C@H]1[C@@H]2C` (some centres undefined) [DIGITONIN]: the half-inhibitory concentration (IC50) result (in experiment [1]; in experiment [2]; against Neutrophil elastase; in experiment [3]; in experiment [4]; in experiment [5] (hela)) was “Not Active” throughout. For the same compound, the 50% inhibitory concentration (IC50) entry on Androgen receptor is given as “Not Active”.

Take `OC(CCCN1CCCCC1)(c1ccccc1)c1ccccc1` [DIPHENIDOL]: the IC50 entry (in experiment [1]; in experiment [2]; at Neutrophil elastase; in experiment [3]; in experiment [4]; in experiment [5] (hela)) was “Not Active” each time. Further, the IC50 entry on Androgen receptor is recorded as “Not Active”.

For `C[C@@H](CO)NC(=O)[C@@H]1C=C2c3cccc4[nH]cc(c34)C[C@H]2N(C)C1` [ERGONOVINE], the IC50 entry is “Not Active” in experiment [1]; “Not Active” in experiment [2]; “Not Active” against Neutrophil elastase; “Not Active” in experiment [3]; “Not Active” in experiment [4]; 3.24 nM in experiment [5] (read-out: IC50). Moreover, on Androgen receptor, the IC50 result was “Not Active”. The inhibitory constant (Ki) in experiment [5] (read-out: Ki) came out at 1.5 nM.

For `COc1ccc2c3c1O[C@H]1C[C@@H](O)C=C[C@@]31CCN(C)C2` [GALANTAMINE], the half-inhibitory concentration (IC50) entry (in experiment [1]; in experiment [2]; on Neutrophil elastase; in experiment [3]; in experiment [4]; in experiment [5] (hela)) was “Not Active” throughout. On Androgen receptor, the IC50 entry was “Not Active”.

Take `CC(C)=CCC/C(C)=C/CO` [GERANIOL]: the IC50 entry (in experiment [1]; in experiment [2]; against Neutrophil elastase; in experiment [3]; in experiment [4]; in experiment [5] (hela)) was “Not Active” in each case. Further, at Androgen receptor, the half-inhibitory concentration (IC50) entry is reported as “Not Active”.

With `COC1=C(OC)C(=O)C(CCCCCCCCCCO)=C(C)C1=O` [IDEBENONE], the IC50 result (in experiment [1]; in experiment [2]; at Neutrophil elastase; in experiment [3]; in experiment [4]; in experiment [5] (hela)) was “Not Active” in each case. The concentration for half-maximal inhibition (IC50) entry on Androgen receptor is listed as “Not Active”.

As to `CC(C)NNC(=O)c1ccncc1` [IPRONIAZID], the IC50 result (in experiment [1]; in experiment [2]; against Neutrophil elastase; in experiment [3]; in experiment [4]; in experiment [5] (hela)) was “Not Active” each time. Moreover, the IC50 result against Androgen receptor is recorded as “Not Active”.

In the case of `O=c1cc(N2CCOCC2)oc2c(-c3ccccc3)cccc12` [LY-294002], the half-inhibitory concentration (IC50) entry (in experiment [1]; in experiment [2]; on Neutrophil elastase; in experiment [3]; in experiment [4]; in experiment [5] (hela)) was “Not Active” in each case. Also, the IC50 result on Androgen receptor was “Not Active”.

Consider `CCN(CC)CCOCCC1=CCC2CC1C2(C)C` (centres undefined) [MYRTECAINE], for which the half-inhibitory concentration (IC50) entry (in experiment [1]; in experiment [2]; against Neutrophil elastase; in experiment [3]; in experiment [4]; in experiment [5] (hela)) was “Not Active” in each case. Also, the half-maximal inhibitory concentration (IC50) result against Androgen receptor is given as “Not Active”.

`CC(=O)O[C@H]1C(=O)[C@@]2(C)[C@H]([C@H](OC(=O)c3ccccc3)[C@]3(O)C[C@H](OC(=O)[C@H](O)[C@@H](NC(=O)c4ccccc4)c4ccccc4)C(C)=C1C3(C)C)[C@]1(OC(C)=O)CO[C@@H]1C[C@@H]2O` [PACLITAXEL]: the half-inhibitory concentration (IC50) result (in experiment [1]; in experiment [2]; at Neutrophil elastase; in experiment [3]; in experiment [4]; in experiment [5] (hela)) was “Not Active” each time. For the same compound, the IC50 result at Androgen receptor is “Not Active”.

`C[n+]1ccc(-c2cc[n+](C)cc2)cc1.[Cl-].[Cl-]` [PARAQUAT DICHLORIDE]: the half-inhibitory concentration (IC50) entry (in experiment [1]; in experiment [2]; against Neutrophil elastase; in experiment [3]; in experiment [4]; in experiment [5] (hela)) was “Not Active” each time. Moreover, the concentration for half-maximal inhibition (IC50) entry against Androgen receptor is on record as “Not Active”.
